Results reported in patent US11759460B2, “Method of local antibiotic treatment of infective endocarditis” (priority 2020, dated 2023).
In brackets after ≈: the same amount, converted by molar mass. Entries after “also recorded” stand apart in the source; their conditions may differ. Like-named read-outs stand apart in the source and are kept apart here.

Experiments:
[1] = test system: S. aureus biofilms; test: Single antibiotic treatment of S. aureus biofilms (SGT method); format: cell-based, Staphylococcus aureus; conditions: for biofilm bactericidal concentration (BBC): S. aureus biofilms grown 48 h, 24 h treatment, 3 log10 CFU (99.9%) reduction vs control
Text: (§1) FIGS. 1A and 1B illustrates effects of different antibiotics tested in a dose-dependent manner against bacterial biofilms of different isolates of S. aureus and E. faecalis using only one antibiotic per treatment to screen the effect of the single antibiotics against bacterial biofilms. The graphs show the decadic logarithm of the colony forming units (log10 CFU) of either S. aureus or E. faecalis on the ordinate in relation to the concentration of various antibiotics on the abscissa. Data points belonging to one antibiotic were connected by lines for clarity. In each graph, the dashed line reflects the biofilm bactericidal concentration (BBC), defined as the target of 3 log10 CFU below the control, i.e. the log10 CFU of untreated biofilms (shown at the antibiotic concentration of 0 mg/L), which needs to be undercut to achieve a meaningful suppression of the bacteria in a biofilm of ≥99.9%. The line graphs intersecting this line indicate the antibiotics' concentrations that need to be applied for effective treatment in S. aureus and E. faecalis biofilms. […] For instance, the BBC of rifampicin against S. aureus is ˜4 mg/L; the BBC of dalbavancin is ˜32 mg/L against E. faecalis in biofilms.
FIGS. 1A and 1B illustrate the effect of different antibiotics tested in a dose-depended manner against bacterial biofilms of different bacterial isolates of S. aureus and E. faecalis using only one antibiotic per treatment to screen the effect of the single antibiotics against bacterial biofilms. To obtain the results the inventors used four strains of S. aureus, i.e. three patient isolates and one reference strain, and three strains of E. faecalis, i.e. two isolates from patients as well as one reference strain. In order to test the different antibiotics individually against the bacterial biofilms, the inventors incubated bacterial suspensions of E. faecalis and S. aureus strains in a 96 well microtiter plate for biofilm formation for 48 hours in a humidified modified atmosphere at 37° C. and 5% CO2 without shaking. For the antibiotic treatment of the biofilms the supernatant of each well was removed and the antibiotic treatment with the individual antibiotics to be tested was added to the biofilms and incubated for 24 hours at the same conditions. The number of bacteria in each well after the 24-hour treatment was determined via so called start-growth-time (SGT) method, where the bacterial regrowth of the dispersed bacteria from the biofilms was measured in an incubation chamber of a plate reader over time. Lower bacteria densities lead to a longer regrowth time to reach a certain threshold compared to controls. Each treatment for each strain was performed in three technical replicates. […]

[2] = test system: planktonic S. aureus; test: Minimal inhibitory concentration for planktonic S. aureus; format: cell-based; conditions: Staphylococcus aureus
[3] = cited from earlier work
[4] = test system: planctonic Enterococcus faecalis; test: Minimal inhibitory concentration for planktonic Enterococcus faecalis; format: cell-based
[5] = test system: E. faecalis biofilms; test: Single antibiotic treatment of E. faecalis biofilms (SGT method); format: cell-based, Enterococcus faecalis; conditions: for biofilm bactericidal concentration (BBC): E. faecalis biofilms grown 48 h, 24 h treatment, 3 log10 CFU (99.9%) reduction vs control
Text: as §1
FIGS. 1A and 1B illustrate the effect of different antibiotics tested in a dose-depended manner against bacterial biofilms of different bacterial isolates of S. aureus and E. faecalis using only one antibiotic per treatment to screen the effect of the single antibiotics against bacterial biofilms. To obtain the results the inventors used four strains of S. aureus, i.e. three patient isolates and one reference strain, and three strains of E. faecalis, i.e. two isolates from patients as well as one reference strain. […] The number of bacteria in each well after the 24-hour treatment was determined via so called start-growth-time (SGT) method, where the bacterial regrowth of the dispersed bacteria from the biofilms was measured in an incubation chamber of a plate reader over time. […]

[6] = systemic therapy, 'believed to be'

Row | MIC [2] | SMILES | biofilm bactericidal concentration (BBC) [1] | biofilm bactericidal concentration (BBC) [5] | approximate concentration in tissue with systemic therapy [3, 6] | other results
1 |  | NCC[C@H](O)C(=O)N[C@@H]1C[C@H](N)[C@@H](O[C@H]2O[C@H](CN)[C@@H](O)[C@H](O)[C@H]2O)[C@H](O)[C@H]1O[C@H]1O[C@H](CO)[C@@H](O)[C@H](N)[C@H]1O [Amikacin, amikacin] | > 512 mg/L |  |  | 
2 |  | CN[C@H]1C(=O)N[C@@H]2Cc3ccc(cc3)Oc3cc4cc(c3O[C@@H]3O[C@H](C(=O)O)[C@@H](O)[C@H](O)[C@H]3NC(=O)CCCCCCCCC(C)C)Oc3ccc(cc3Cl)[C@@H](O)[C@@H]3NC(=O)[C@H](NC(=O)[C@@H]4NC(=O)[C@@H](NC2=O)c2cc(cc(O)c2Cl)Oc2cc1ccc2O)c1ccc(O)c(c1)-c1c(O[C@H]2O[C@H](CO)[C@@H](O)[C@H](O)[C@@H]2O)cc(O)cc1[C@@H](C(=O)NCCCN(C)C)NC3=O [dalbavancin] | about 4 mg/L |  |  | 
3 | ~0.25 µg/mL (≈ 0.154 µM) | CCCCCCCCCC(=O)N[C@@H](Cc1c[nH]c2ccccc12)C(=O)N[C@H](CC(N)=O)C(=O)N[C@@H](CC(=O)O)C(=O)N[C@@H]1C(=O)NCC(=O)N[C@@H](CCCN)C(=O)N[C@@H](CC(=O)O)C(=O)N[C@H](C)C(=O)N[C@@H](CC(=O)O)C(=O)NCC(=O)N[C@H](CO)C(=O)N[C@@H]([C@H](C)CC(=O)O)C(=O)N[C@@H](CC(=O)c2ccccc2N)C(=O)O[C@@H]1C [daptomycin] |  | about 32 mg/L |  | approximate concentration in tissue with systemic therapy ([3]; in vivo): ~4 mg/L; MIC [4]: ~0.25 µg/mL (≈ 0.154 µM); suppression of bacteria in biofilms (in words) ([1]; S. aureus biofilms, single antibiotic): can suppress the bacteria sufficiently; also recorded: highest potency; suppression of bacteria in biofilms (in words) ([5]; E. faecalis biofilms, single antibiotic): can suppress the bacteria sufficiently; also recorded: highest potency
4 |  | C[C@@H]1O[C@@H]1P(=O)(O)O [phosphomycin] |  | > 1024 mg/L |  | 
5 | ~0.004 µg/mL (≈ 0.00486 µM) | CO[C@H]1/C=C/O[C@@]2(C)Oc3c(C)c(O)c4c(O)c(c(/C=N/N5CCN(C)CC5)c(O)c4c3C2=O)NC(=O)/C(C)=C\C=C\[C@H](C)[C@H](O)[C@@H](C)[C@@H](O)[C@@H](C)[C@H](OC(C)=O)[C@@H]1C [rifampicin] | ~4 mg/L |  | ~1 mg/L | 
6 |  | CN[C@H](CC(C)C)C(=O)N[C@H]1C(=O)N[C@@H](CC(N)=O)C(=O)N[C@H]2C(=O)N[C@H]3C(=O)N[C@H](C(=O)N[C@H](C(=O)O)c4cc(O)cc(O)c4-c4cc3ccc4O)[C@H](O)c3ccc(c(Cl)c3)Oc3cc2cc(c3O[C@@H]2O[C@H](CO)[C@@H](O)[C@H](O)[C@H]2O[C@H]2C[C@](C)(N)[C@H](O)[C@H](C)O2)Oc2ccc(cc2Cl)[C@H]1O [vancomycin] |  |  | ~1 mg/L | 
